Results as given in patent US20070219210A1, “Amidopyrazole Derivative” (Daiichi Pharmaceutical Co., LTD., priority 2003, published 2007).
Like-named read-outs stand apart in the source and are kept apart here.

Legend:
[1] = test system: collagen-induced platelet coagulation; conditions: background art (Patent Document 1, Non-patent Document 5); read-out: IC50 value against collagen-induced platelet coagulation; cited from earlier work
[2] = test system: collagen-induced platelet coagulation; test: Inhibitory effect on collagen-induced platelet coagulation in platelet rich plasma; type: cell-based; conditions: human platelet rich plasma, 37° C., coagulation induced with collagen; read-out: Inhibition of collagen-induced platelet coagulation, IC50
Experimental: Human blood was collected by using 1/10 volume of 3.13% sodium citrate as an anticoagulant, and the blood was centrifuged at 180 g for 10 minutes to separate platelet rich plasma (PRP), which was the upper layer. After collecting the upper layer PRP, the remaining lower layer was centrifuged at 1600 g for 10 minutes, and platelet poor plasma (PPP) in the upper layer was collected. 1 μl solution of the compound of the Examples was added to 200 μl of the PRP, and after allowing the sample to stand at 37° C. for 2 minutes, 2 μl of collagen was added in order to induce platelet coagulation. Platelet coagulation rate was measured with PAM-12C (SSR Engineering).

Cyclooxygenase-2 (COX-2) = target: T1, Cyclooxygenase-2 (COX-2) (Homo sapiens, UniProt P35354); test: COX Inhibitor Screening Assay Kit (Cayman), PGF2α by ELISA, COX-2; type: biochemical; conditions: compound at 50 μm; relative to PGF2α produced without compound (100%)
T1 construct: purchased Cayman Chemical Company 560121
T1 sequence (P35354 18-604): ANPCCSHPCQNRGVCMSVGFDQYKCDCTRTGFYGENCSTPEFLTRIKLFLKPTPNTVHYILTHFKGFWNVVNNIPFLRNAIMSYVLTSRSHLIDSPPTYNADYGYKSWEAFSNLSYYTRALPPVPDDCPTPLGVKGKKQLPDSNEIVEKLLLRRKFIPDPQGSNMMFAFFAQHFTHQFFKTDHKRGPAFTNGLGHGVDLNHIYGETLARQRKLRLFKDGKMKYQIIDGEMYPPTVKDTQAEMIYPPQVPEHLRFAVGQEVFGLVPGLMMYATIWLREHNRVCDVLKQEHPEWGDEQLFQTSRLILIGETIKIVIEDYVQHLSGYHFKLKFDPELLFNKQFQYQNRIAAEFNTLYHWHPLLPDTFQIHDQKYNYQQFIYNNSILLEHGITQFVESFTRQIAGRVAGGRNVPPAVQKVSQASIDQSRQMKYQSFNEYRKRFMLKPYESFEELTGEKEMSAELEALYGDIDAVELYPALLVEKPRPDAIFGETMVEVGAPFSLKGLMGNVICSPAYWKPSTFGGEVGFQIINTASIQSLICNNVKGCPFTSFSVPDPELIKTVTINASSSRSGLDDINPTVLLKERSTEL
Experimental: (§1) Inhibitory activity against COX-1 and COX-2 of the compounds produced in the Examples was measured by using COX Inhibitor Screening Assay Kit (Catalog Nos. 560101 and 560121) purchased from Cayman Chemical Company.
(§2) Before starting the measurement, reaction buffer, heme, arachidonic acid, SnCl2, EIA buffer, washing buffer, prostaglandin (PG) screening EIA standard, PG screening acetylcholine esterase (AchE), tracer (chromogenic enzyme HRP conjugate), and PC screening EIA antiserum were prepared ready for use.
(§3) The reaction mixture containing the compound of the Examples (50 μM) and COX-1 or COX-2 was allowed to stand at 37° C. or 10 minutes, and after adding 10 μl of arachidonic acid, the solution was again allowed to stand at 37° C. for 2 minutes. After the reaction, the reaction was terminated by adding 50 μl of 1N-hydrochloric acid, and 100 μl solution of SnCl2 was added, and the reaction mixture was allowed to stand at room temperature for 5 minutes.
(§4) 50 μl of antiserum (rabbit anti-PGF2α antibody) was placed in the wells of 96 well plate that had been coated with mouse anti-rabbit IgG and 50 μl of the 2000-fold diluted PGF2α-containing liquid described above and 50 μl of AchE tracer were added to the well in this order, and the mixture was allowed to stand at room temperature for 18 hours. The wells were washed 5 times with the washing buffer to remove an excessive AchE tracer, and 200 μl of Ellman reagent was added. After leaving the plate in a dark room for 60 minutes, absorbance was measured at 405 nm.
(§5) A calibration curve was obtained by using the PG screening EIA standard, and the amount of PGF2α produced was determined from the absorption. Inhibitory rate at 50 μM of the compound of the Examples against COX-1 or COX-2 was calculated.
(§6) It is to be noted that the inhibitory rate was calculated in relation to the amount of the PGF2α produced by the reaction liquid free from the compounds of the Examples, which was taken 100%.

Cyclooxygenase-1 (COX-1) = target: T2, Cyclooxygenase-1 (COX-1) (Ovis aries, UniProt P05979); test: COX Inhibitor Screening Assay Kit (Cayman), PGF2α by ELISA, COX-1; type: biochemical; conditions: compound at 50 μm; relative to PGF2α produced without compound (100%)
T2 construct: purchased Cayman Chemical Company 560101
T2 sequence (P05979 25-600): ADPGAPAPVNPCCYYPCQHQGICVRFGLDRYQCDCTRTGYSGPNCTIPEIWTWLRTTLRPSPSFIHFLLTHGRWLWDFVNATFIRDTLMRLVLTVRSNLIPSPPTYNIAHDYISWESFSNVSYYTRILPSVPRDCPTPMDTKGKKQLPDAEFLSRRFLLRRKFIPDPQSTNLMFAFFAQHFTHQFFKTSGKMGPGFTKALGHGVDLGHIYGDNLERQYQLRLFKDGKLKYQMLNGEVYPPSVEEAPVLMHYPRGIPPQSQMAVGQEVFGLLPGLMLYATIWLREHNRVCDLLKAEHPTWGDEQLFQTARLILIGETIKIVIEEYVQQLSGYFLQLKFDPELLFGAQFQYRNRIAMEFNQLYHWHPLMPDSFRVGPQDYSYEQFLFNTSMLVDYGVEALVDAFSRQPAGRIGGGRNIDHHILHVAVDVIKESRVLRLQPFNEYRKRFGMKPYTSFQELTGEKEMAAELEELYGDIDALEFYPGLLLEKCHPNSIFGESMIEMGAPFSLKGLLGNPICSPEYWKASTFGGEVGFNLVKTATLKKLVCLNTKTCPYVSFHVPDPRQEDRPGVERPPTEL
Experimental: as §1, §2, §3, §4, §5, §6

SMILES | IC50 [1] | IC50 [2] | Inhibitory effect against COX-2 at 50 μm (% inhibition) (Cyclooxygenase-2 (COX-2)) | Inhibitory effect against COX-1 at 50 μm (% inhibition) (Cyclooxygenase-1 (COX-1))
CS(=O)(=O)c1ccc(-c2cc(C#N)nn2-c2ccc(F)cc2)cc1 [Compound (A)] | 5300 nM |  |  | 
COc1ccc(-n2nc(C(=O)NC(C)(C)C)cc2-c2cnccn2)cn1 [Example 13, N-tert-Butyl-1-(6-methoxy-3-pyridyl)-5-(2-pyrazinyl)-1H-pyrazole-3-carboxamide] |  | 18 nM | 9.2 % inhibition | 13.9 % inhibition
Cc1cnc(-c2cc(C(=O)NC(C)(C)C)nn2-c2cccnc2)cn1 [Example 65, N-tert-Butyl-5-(5-methyl-2-pyrazinyl)-1-(3-pyridyl)-1H-pyrazole-3-carboxamide] |  | 20 nM | −1.6 % inhibition | 11.6 % inhibition
CC(C)(C)NC(=O)c1cc(-c2ccc(CO)cn2)n(-c2cccnc2)n1 [Example 26, N-tert-Butyl-5-(5-hydroxymethyl-2-pyridyl)-1-(3-pyridyl)-1H-pyrazole-3-carboxamide] |  | 65 nM | 8.2 % inhibition | 5.5 % inhibition
Cc1ccc(-n2nc(C(=O)NC(C)(C)C)cc2-c2ccccn2)cn1 [Example 8, N-tert-Butyl-1-(6-methyl-3-pyridyl)-5-(2-pyridyl)-1H-pyrazole-3-carboxamide] |  | 18 nM | 3.9 % inhibition | −3.3 % inhibition
COc1ccc(-n2nc(C(=O)NCC3CCCO3)cc2-c2ccccn2)cn1 (stereo not shown) [Example 44, N-(Tetrahydro-2-furanylmethyl)-1-(6-methoxy-3-pyridyl)-5-(2-pyridyl)-1H-pyrazole-3-carboxamide] |  | 140 nM | 3.6 % inhibition | 4.3 % inhibition
COc1ccc(-c2cc(C(=O)NC(C)(C)C)nn2-c2cccnc2)nc1 [Example 25, N-tert-Butyl-5-(5-methoxy-2-pyridyl)-1-(3-pyridyl)-1H-pyrazole-3-carboxamide] |  | 18 nM | 8.2 % inhibition | 4.7 % inhibition
COc1ccc(-n2nc(C(=O)NC3CCCC3)cc2-c2ccccn2)nn1 [Example 56, N-Cyclopentyl-1-(6-methoxy-3-pyridazinyl)-5-(2-pyridyl)-1H-pyrazole-3-carboxamide] |  | 92 nM | −1.7 % inhibition | −1.2 % inhibition
COc1cnc(-n2nc(C(=O)NC(C)(C)C)cc2-c2ccccn2)cn1 [Example 15, N-tert-Butyl-1-(5-methoxy-2-pyrazinyl)-5-(2-pyridyl)-1H-pyrazole-3-carboxamide] |  | 29 nM | 6.9 % inhibition | 39.5 % inhibition
COc1ccc(-n2nc(C(=O)NC3(C(N)=O)CCCC3)cc2-c2ccccn2)cn1 [Example 48, N-(1-Carbamoyl-1-cyclopentyl)-1-(6-methoxy-3-pyridyl)-5-(2-pyridyl)-1H-pyrazole-3-carboxamide] |  | 190 nM | 8.7 % inhibition | 3.6 % inhibition
CC(C)(C)NC(=O)c1cc(-c2ccc(Cl)cn2)n(-c2cccnc2)n1 [Example 28, N-tert-Butyl-5-(5-chloro-2-pyridyl)-1-(3-pyridyl)-1H-pyrazole-3-carboxamide] |  | 8.9 nM | 7.6 % inhibition | 5.4 % inhibition
CC(C)(C)NC(=O)c1cc(-c2ccc(O)cn2)n(-c2cccnc2)n1 [Example 22, N-tert-Butyl-5-(5-hydroxy-2-pyridyl)-1-(3-pyridyl)-1H-pyrazole-3-carboxamide] |  | 210 nM | 4.2 % inhibition | 0.8 % inhibition
COCC(C)(C)NC(=O)c1cc(-c2ccccn2)n(-c2ccc(OC)nn2)n1 [Example 40, N-(2-Methoxy-1,1-dimethylethyl)-1-(6-methoxy-3-pyridazinyl)-5-(2-pyridyl)-1H-pyrazole-3-carboxamide] |  | 65 nM | 14.8 % inhibition | 72 % inhibition
COc1ccc(-n2nc(C(=O)NC(C)(C)C)cc2-c2cc(CO)ccn2)cn1 [Example 4, N-tert-Butyl-5-(4-hydroxymethyl-2-pyridyl)-1-(6-methoxy-3-pyridyl)-1H-pyrazole-3-carboxamide] |  | 120 nM | −1.9 % inhibition | −1.5 % inhibition
